Experimental data from EP4652998A1, “TREATMENT OF RECEPTOR-INTERACTING PROTEIN KINASE 1- MEDIATED DISEASE WITH ECLITASERTIB” (Technische Universität München, priority 2024, dated 2025).

How the values were obtained:
C57BL/6 mice = experiment: Tnf-α-driven systemic inflammatory response syndrome (SIRS) model, hypothermia; assay type: in vivo; settings: 15 min after Tnf-α (0.3 mg/kg)/zVAD i.v., 5 h, Tnf-α/zVAD alone -9.3 ± 0.3, vehicle -1.9 ± 0.5
Method: TNF-α driven systemic inflammatory response syndrome (SIRS) model was performed as described before (Immunity 35, 908-918 (2011)). Briefly, male C57BL/6 mice (n=6 per group) were injected into the tail vain with a volume of 125 µl per 25 g mouse of either vehicle (15 % PEG 200; 8.4 % DMSO; 0.6 % NaCl) or a mixture of murine Tnf-α (0.3 mg/kg) and zVAD (6.7 mg/kg) prepared in vehicle. No Tnf-α/zVAD was administered to the vehicle group. 15 min after induction of hypothermia by application of Tnf-α/zVAD mix, animals were orally dosed with RIPK1 inhibitor or GSK`963. Body temperature was monitored every hour using radio-frequency identification (RFID) technology with IPTT-300 transponders that were injected subcutaneously 2-3 days before initiation of the experiment.
Next, the effects of RIPK1 inhibition were assessed in vivo using a murine Tnf-α-driven systemic inflammatory response syndrome model (Immunity 35, 908-918 (2011)). C57BL/6 mice (n=6 per group) were injected of either vehicle (15 % PEG 200; 8.4 % DMSO; 0.6 % NaCL 0.9 %) or a mixture of murine Tnf-α (0.3 mg/kg) and zVAD (16.7 mg/kg) into the tail vein. 15 minutes after induction of hypothermia, animals were orally dosed with the RIPK1 inhibitors SAR443122 or GSK`963, a previously described RIPK1 inhibitor ( Cell Death Discov 1, 15009 (2015)). Body temperature was monitored up to 5 hours using radio-frequency identification technology with IPTT-300 transponders that were injected subcutaneously 2-3 days before initiation of the experiment (Fig. 4A). Animals receiving the Tnf-α/zVAD mixture rapidly responded with a significant decrease of body temperature within 5 hours from 37.3 ± 0.2 °C to 27.9 ± 0.2 °C and a delta temperature of -9.3 ± 0.3 °C (p=0.0002) compared to vehicle (-1.9 ± 0.5 °C). Oral administration of RIPK1 inhibitor led to a dose dependent increase of delta body temperature (1 mg/kg: -8.8 ± 0.5 °C; 5 mg/kg: -7.6 ± 1.2 °C; 15 mg/kg: -3.4 ± 1.3 °C, p=0.0007 to Tnf-α/zVAD) (Fig. 4B).

[1] = tested on: primary human keratinocytes; experiment: Cell viability assay (MTS/PMS) after cell death induction with IFN-γ + TNF-α + zVAD + SMAC; assay type: cell-based; settings: 4 nM RIPK1 inhibitor (or higher), zVAD [20 µM] and SMAC [1 µM], 24 h, normalized to zVAD + SMAC (100 %), stimulated control 43,6 % ± 7.6 %, n=4
Method: (§1) Primary human keratinocytes were obtained from healthy donors by suction blister as reported before (J Allergy Clin Immunol 141, 1320-1333 e1311 (2018)) and donor characteristics are listed in Table S3. Epidermal keratinocytes were cultured in keratinocyte medium (DermaLife Basal Medium supplemented with DermaLife K LifeFactor Kit (Lifeline Cell Technology, LL-0007)) at 37 °C, 5 % CO2 and second- to third-passages were used. At 70-80 % of confluence, keratinocytes were pre-incubated for 1 h with RIPK1 inhibitor (100 nM or as indicated, SANOFI) followed by stimulation with rhIFN-γ (100 ng/ml or as indicated, R&D, #285-IF-100/CF) and rhTNF-α (100 ng/ml or as indicated, R&D, #210_TA/CF) in the presence of zVAD (20 µM, Cell Signaling, #60332), SMAC (1 µM, LC Laboratories, #B-9135) and the RIPK1 inhibitor for 24 h in keratinocyte medium without hydrocortisone.
Cell viability of cultured keratinocytes was determined using CellTiter 96® Aqueous NonRadioactive Cell Proliferation Assay (Promega, G5421) according to manufacturer's instructions. MTS/PMS reagent was used 1:6 diluted in keratinocyte medium without hydrocortisone and incubated for 1 h. Afterwards, supernatants were analysed by ELISA at 490 nm minus 700 nm as reference. To calculate the percentage of cell viability to ZS extinction values were normalized to the control stimulation zVAD + SMAC (100 %).

[2] = tested on: primary human keratinocytes; experiment: Multiplex ELISA of cytokines released by keratinocytes after cell death induction; assay type: cell-based; settings: 24 h
Method: as §1
Cell free supernatants derived from keratinocyte stimulation experiments or lesional TCS from LP/LE patients were analysed for 27 cytokines, chemokines and growth factors using the Bio-Plex Pro Human Cytokine 27-plex Assay (Bio-Rad Laboratories, Hercules, Calif) according to the manufacturer's recommendation.

[3] = tested on: keratinocyte skin equivalents; experiment: Three-dimensional keratinocyte skin equivalents stimulated with LP/LE-TCS, histology and epidermal thickness; assay type: cell-based, human; settings: 100 nM inhibitor, LP/LE-TCS 1:10 + zVAD + SMAC, 72 h
Method: Three-dimensional keratinocyte skin equivalents were generated as described before Arch Dermatol Res 296, 203-211 (2004)). Briefly, 3.0E^5 primary human keratinocytes were seeded in 500 µL keratinocyte medium with 1.5 mM CaCh into the insert and placed in a well containing the same medium. After two days, keratinocytes were exposed to the air-liquid interface and medium in the surrounding well was supplemented with 50 µg/mL Vitamin C. Nine days after airlift, the skin equivalents were pre-treated for 1 h with RIPK1 inhibitor (100 nM, SANOFI) followed by a stimulation with supernatant mix of lesional T cells from LP and LE patients (1: 10 diluted) in the presence of zVAD (20 µM, Cell Signaling, #60332), SMAC (1 µM, LC Laboratories, #B-9135) and the RIPK1 inhibitor for 72 h. Afterwards, membranes of the fixated skin equivalents were cut out with a scalpel, divided into two pieces, formalin fixed and embedded in paraffin. […] Concentrations of key cytokines in the supernatant mix of lesional T cells were determined by a multiplex ELISA (Biorad) and listed in Table S4. […]

[4] = tested on: keratinocyte skin equivalents; experiment: Three-dimensional keratinocyte skin equivalents stimulated with LP/LE-TCS, secreted cytokines in supernatant; assay type: cell-based, human; settings: 100 nM inhibitor, 72 h, relative concentration to stimulated control (ZS + LP/LE-TCS) without inhibitor, n=3
Method: Three-dimensional keratinocyte skin equivalents were generated as described before Arch Dermatol Res 296, 203-211 (2004)). Briefly, 3.0E^5 primary human keratinocytes were seeded in 500 µL keratinocyte medium with 1.5 mM CaCh into the insert and placed in a well containing the same medium. After two days, keratinocytes were exposed to the air-liquid interface and medium in the surrounding well was supplemented with 50 µg/mL Vitamin C. Nine days after airlift, the skin equivalents were pre-treated for 1 h with RIPK1 inhibitor (100 nM, SANOFI) followed by a stimulation with supernatant mix of lesional T cells from LP and LE patients (1: 10 diluted) in the presence of zVAD (20 µM, Cell Signaling, #60332), SMAC (1 µM, LC Laboratories, #B-9135) and the RIPK1 inhibitor for 72 h. Afterwards, membranes of the fixated skin equivalents were cut out with a scalpel, divided into two pieces, formalin fixed and embedded in paraffin. Primary human lesional T cells were isolated from freshly taken skin biopsies of LP (n=5) and LE (n=3) patients (patient characteristics see Table S 1) by emigration towards an IL-2 gradient followed by expansion with α-CD3/α-CD28 stimulation as described previously (J Invest Dermatol, (2018), Case Rep Pathol 2021, 8819560 (2021)). Supernatants of expanded lesional T cells were generated by 3-day stimulation with 0.75 µg/mL α-CD3 (pre-coated, BD Biosciences) and 0.75 µg/mL soluble α-CD28 (BD Biosciences). A mixture of all 8 lesional supernatants at equimolar ratio was used for stimulation of 3D keratinocyte skin equivalents. Concentrations of key cytokines in the supernatant mix of lesional T cells were determined by a multiplex ELISA (Biorad) and listed in Table S4. Table S4. Composition of lesional LP/LE-TCS mix. Hu = human. Cell free supernatants derived from keratinocyte stimulation experiments or lesional TCS from LP/LE patients were analysed for 27 cytokines, chemokines and growth factors using the Bio-Plex Pro Human Cytokine 27-plex Assay (Bio-Rad Laboratories, Hercules, Calif) according to the manufacturer's recommendation.

[5] = tested on: lesional skin of LP patients; experiment: Human lesional skin biopsy cultures ex vivo, gene expression by qPCR; assay type: cell-based; settings: 1 µM inhibitor, 4 h, LP skin biopsies (n=5), compared to autologous non-treated controls
Method: 6 mm punch biopsies of lesional skin of LP patients (n=5) were obtained under local anaesthesia. Biopsies were divided into two parts and treated with the RIPK1 inhibitor (1 µM, SANOFI) or without as untreated control sample for 4 h in T cell media (RPMI 1640 medium with 1 % human serum, 0.1 mM non-essential aminoacids, 2 mM L-Glutamine, 1 mM sodium pyruvate and 100 U/mL penicillin/streptomycin). After stimulation, biopsies were stored in RNALater® solution at -80 °C until RNA preparation. RNA was isolated using QIAzol Lysis Reagent (Qiagen) and miRNeasy Mini Kit (Qiagen) according to manufacturer's protocol. mRNA was transcribed into cDNA with Applied Biosytems High Capacity cDNA Reverse Transcription Kit (Thermo Fisher Scientific). Gene expression was measured on an Applied Biosystems ViiA7 Real-Time PCR system (Thermo Fisher Scientific) using Fast Start Universal SYBRGreen Master Rox (Roche). Primers were ordered from Metabion (http://www.metabion.com) and are listed in supplementary Table S5. Data are shown as relative gene expression to untreated sample using 2^-(ΔΔcT) method. Table S5. Primer sequences. Fw = forward. rv = reverse.

RIPK1 = target: T1, RIPK1 (Homo sapiens, UniProt Q13546); experiment: Western blot of RIPK1-pS166 autophosphorylation in keratinocytes; assay type: cell-based; settings: RIPK1-pS166, 100 nM inhibitor, 6 h after IFN-γ [10 ng/ml] + TNF-α [10 ng/ml] + zVAD [20 µM]
T1 construct: Detection of RIPK1-pS 166 in WB analysis of primary human keratinocytes; endogenous in cells; host or cells: primary human keratinocytes from healthy donors (suction blister)
T1 sequence (Q13546 1-671): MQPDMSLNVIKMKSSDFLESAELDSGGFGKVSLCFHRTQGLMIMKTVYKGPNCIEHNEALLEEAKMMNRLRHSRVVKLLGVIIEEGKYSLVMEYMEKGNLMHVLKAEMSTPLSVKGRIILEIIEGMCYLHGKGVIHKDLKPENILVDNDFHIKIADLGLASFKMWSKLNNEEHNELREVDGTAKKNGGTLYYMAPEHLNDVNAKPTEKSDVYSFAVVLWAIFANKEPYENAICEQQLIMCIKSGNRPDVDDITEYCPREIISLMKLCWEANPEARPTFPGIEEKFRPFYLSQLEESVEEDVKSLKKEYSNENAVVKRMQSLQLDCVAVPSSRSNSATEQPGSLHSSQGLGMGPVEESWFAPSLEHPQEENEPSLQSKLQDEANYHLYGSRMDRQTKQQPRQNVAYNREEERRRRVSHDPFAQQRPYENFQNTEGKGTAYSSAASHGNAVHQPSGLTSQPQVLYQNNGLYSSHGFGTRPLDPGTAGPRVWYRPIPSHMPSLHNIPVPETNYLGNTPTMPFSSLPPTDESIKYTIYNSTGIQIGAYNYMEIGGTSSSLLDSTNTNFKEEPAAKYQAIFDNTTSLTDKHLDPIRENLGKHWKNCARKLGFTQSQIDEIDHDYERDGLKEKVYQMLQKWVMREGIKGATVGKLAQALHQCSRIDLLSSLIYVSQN
Method: Keratinocytes were lysed in RIPA lysis buffer (Santa Cruz) supplemented with 1 mM sodium orthovanadate, 2mM PMSF and proteinase inhibitor cocktail (1:70) according to the manufacturer's instructions.

CN1C(=O)[C@@H](NC(=O)c2nnc(Cc3ccccc3)[nH]2)COc2cccnc21 [SAR443122, 5-Benzyl-N-[(3S)-5-methyl-4-oxo-2,3-dihydropyrido[3,2-b][1,4]oxazepin-3-yl]-4H-1,2,4-triazole-3-carboxamide]
delta body temperature (C57BL/6 mice; 1 mg/kg oral): -8.8 ± 0.5 °C | delta body temperature (C57BL/6 mice; 5 mg/kg oral): -7.6 ± 1.2 °C | delta body temperature (C57BL/6 mice; 15 mg/kg oral, p=0.0007 to Tnf-α/zVAD): -3.4 ± 1.3 °C | viability [1]: 95.1 % ± 0.8 | release of IL-1β ([2]; IFN-γ + TNF-α + zVAD + SMAC, dose dependent, p=0.0050 for 100 nM, n=4): significantly diminished the release of IL-1β to basal levels | IL-1α, IL-1RA, CXCL5, IL-8 (CXCL8), GM-CSF and CCL20 ([2]; secreted cytokines, 100 ng/ml IFN-γ + TNF-α + zVAD + SMAC, n=3): significant reduction | epidermal architecture [3]: restored the normal epidermal architecture | epidermal thickness ([3]; stimulated control 102.0 ± 5.1, unstimulated 61.3 ± 5.4, p<0.0001): 80.3 ± 5.1 µm | release of CCL20 [4]: 29.1 % ± 4.4 | release of II,-1RA [4]: 48.9 % ± 18.0 | release of TNF-α [4]: 70.3 % ± 6.3 | release of IL-8 ([4]; p=0.4757): 79.8 % ± 9.6 | downregulation of CCL3 [5]: 62% | downregulation of CXCL9 [5]: 57% | downregulation of CXCL10 [5]: 40% | downregulation of CXCL11 [5]: 43% | downregulation of IFNg [5]: 60% | downregulation of IL1RA [5]: 65% | downregulation of TNF [5]: 60% | RIPK1 autophosphorylation (RIPK1): efficiently blocked
